According to the supplement of paper PMC10307832:

Columns and labels:
Assay in all cases: relative viability (nuclei count vs DMSO), 5 days (fraction); higher = more cells survive
YM155 + Foretinib = compound: COCC[n+]1c2c(n(Cc3cnccn3)c1C)C(=O)c1ccccc1C2=O [YM155] + COc1cc2c(Oc3ccc(NC(=O)C4(C(=O)Nc5ccc(F)cc5)CC4)cc3F)ccnc2cc1OCCCN1CCOCC1 [Foretinib] (partner 0.25 µM)
Procedure, shortened: (§1)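 Lung cancer cell lines were seeded in 1536-well plates and dosed by pin tool the next day, with either a single drug or a fixed anchor-drug dose combined with five library-drug doses (not always all listed) spaced in √10 steps. Five days later, one step fixed the cells and stained their nuclei (final 0.05% Triton X-100, 1% formaldehyde, 1 ug/ml Hoechst), and nuclei were counted on 4× images. Relative viability is the nuclei count in treated wells divided by the count in vehicle wells, and each value is the median of duplicate plates.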

Quizartinib + Tozasertib = compound: CC(C)(C)c1cc(NC(=O)Nc2ccc(-c3cn4c(n3)sc3cc(OCCN5CCOCC5)ccc34)cc2)no1 [Quizartinib] + Cc1cc(Nc2cc(N3CCN(C)CC3)nc(Sc3ccc(NC(=O)C4CC4)cc3)n2)n[nH]1 [Tozasertib] (partner 0.1 µM)
Procedure, shortened: as §1

YM155 + Linsitinib = compound: COCC[n+]1c2c(n(Cc3cnccn3)c1C)C(=O)c1ccccc1C2=O [YM155] + C[C@]1(O)C[C@@H](c2nc(-c3ccc4ccc(-c5ccccc5)nc4c3)c3c(N)nccn32)C1 [Linsitinib] (partner 1 µM)
Procedure, shortened: as §1

YM155 + Bortezomib = compound: COCC[n+]1c2c(n(Cc3cnccn3)c1C)C(=O)c1ccccc1C2=O [YM155] + CC(C)C[C@H](NC(=O)[C@H](Cc1ccccc1)NC(=O)c1cnccn1)B(O)O [Bortezomib] (partner 0.002 µM)
Procedure, shortened: as §1

Cell Line	relative viability (YM155 + Foretinib; first compound 0.002 µM)	relative viability (YM155 + Foretinib; first compound 0.006325 µM)	relative viability (YM155 + Foretinib; first compound 0.02 µM)	relative viability (YM155 + Foretinib; first compound 0.06325 µM)	relative viability (Quizartinib + Tozasertib; first compound 0.003162 µM)	relative viability (Quizartinib + Tozasertib; first compound 0.01 µM)	relative viability (Quizartinib + Tozasertib; first compound 0.03162 µM)	relative viability (Quizartinib + Tozasertib; first compound 0.1 µM)	relative viability (YM155 + Linsitinib; first compound 0.002 µM)	relative viability (YM155 + Linsitinib; first compound 0.006325 µM)	relative viability (YM155 + Linsitinib; first compound 0.02 µM)	relative viability (YM155 + Linsitinib; first compound 0.06325 µM)	relative viability (YM155 + Bortezomib; first compound 0.002 µM)	relative viability (YM155 + Bortezomib; first compound 0.006325 µM)	relative viability (YM155 + Bortezomib; first compound 0.02 µM)	relative viability (YM155 + Bortezomib; first compound 0.06325 µM)	relative viability (Quizartinib + Tozasertib; first compound 0.001 µM)
NCI-H23	0.643	0.718	0.959	0.785	0.343	0.405	0.249	0.231	0.54	0.595	0.598	0.295	0.7	1.05	0.929	0.455	–
NCI-H322M	1.02	1.08	0.931	0.981	0.468	0.505	0.511	0.558	0.762	0.929	0.917	1.01	1.22	1.18	1.19	1.37	0.393
NCI-H441	0.859	0.636	0.992	0.43	0.599	0.586	–	0.489	0.461	0.486	0.557	0.353	0.452	0.407	0.466	0.446	0.66
NCI-H460	0.957	1.04	1.01	0.919	0.401	0.394	0.142	0.0635	0.778	0.936	0.735	0.517	0.991	1.24	1.19	1.04	0.4
NCI-H520	0.662	0.671	0.68	0.831	0.448	0.444	0.393	0.385	0.895	1.13	1.04	0.957	0.586	0.62	0.653	1	0.347
NCI-H596	0.79	0.833	0.946	0.829	0.838	0.964	0.803	0.64	–	1.05	1.07	1.07	–	1.18	0.946	1.19	0.642
NCI-H647	1.21	1.11	0.981	0.474	0.258	0.284	0.329	0.301	1.11	1.37	0.996	0.857	0.777	1	0.826	0.792	0.267
NCI-H650	0.985	0.932	0.988	1.06	0.676	0.694	0.689	0.736	0.721	0.857	0.966	0.784	1.02	0.771	1.08	0.871	0.706
NCI-H661	1.03	1.02	1.03	0.494	0.364	0.352	0.359	0.355	0.697	0.699	0.54	0.598	0.894	0.983	0.835	0.848	0.298
NCI-H727	0.951	0.902	1.14	1.03	0.654	0.557	0.648	0.7	0.28	0.321	0.28	0.364	0.88	0.771	0.924	0.977	0.594
NCI-H838	1.04	1.02	1.09	0.479	0.22	0.3	0.276	0.22	0.935	0.997	1.03	0.485	0.94	1.01	0.958	0.817	0.249
NCI-H1355	0.932	1.02	1.06	0.964	0.542	0.51	0.442	0.433	0.821	0.832	0.948	0.875	1.11	1.27	1.25	1.22	0.495
NCI-H1437	1.21	1.24	1.26	0.984	0.399	0.422	0.367	0.329	0.994	1.05	0.989	0.878	0.501	0.501	0.516	0.519	0.372
NCI-H1651	0.864	0.785	0.84	0.603	0.679	0.645	0.351	0.5	1.04	0.94	1	0.642	0.937	0.946	0.897	0.961	0.604
NCI-H1666	0.917	0.996	0.988	0.942	0.594	0.612	0.462	0.557	0.88	–	1.01	0.578	0.644	–	0.815	0.718	0.56
NCI-H1734	0.853	0.723	0.914	0.989	0.288	0.267	0.274	0.271	0.916	0.811	0.889	0.979	1	0.818	1.04	0.99	0.237

Cell Line	relative viability (YM155 + Foretinib; first compound 0.002 µM)	relative viability (YM155 + Foretinib; first compound 0.006325 µM)	relative viability (YM155 + Foretinib; first compound 0.02 µM)	relative viability (YM155 + Foretinib; first compound 0.06325 µM)	relative viability (Quizartinib + Tozasertib; first compound 0.003162 µM)	relative viability (Quizartinib + Tozasertib; first compound 0.01 µM)	relative viability (Quizartinib + Tozasertib; first compound 0.03162 µM)	relative viability (Quizartinib + Tozasertib; first compound 0.1 µM)	relative viability (YM155 + Linsitinib; first compound 0.002 µM)	relative viability (YM155 + Linsitinib; first compound 0.006325 µM)	relative viability (YM155 + Linsitinib; first compound 0.02 µM)	relative viability (YM155 + Linsitinib; first compound 0.06325 µM)	relative viability (YM155 + Bortezomib; first compound 0.002 µM)	relative viability (YM155 + Bortezomib; first compound 0.006325 µM)	relative viability (YM155 + Bortezomib; first compound 0.02 µM)	relative viability (YM155 + Bortezomib; first compound 0.06325 µM)	relative viability (Quizartinib + Tozasertib; first compound 0.001 µM)
NCI-H1755	0.853	0.934	0.884	0.976	0.536	0.569	0.626	0.48	0.972	1.03	0.974	0.976	0.941	0.894	1.03	0.923	0.583
NCI-H1915	1.05	1.08	1.08	0.963	0.427	0.42	0.401	0.389	1.12	1.05	1.1	1.01	0.945	0.972	0.957	0.918	0.419
NCI-H1975	0.978	0.907	0.933	0.308	0.809	0.488	0.372	0.16	1.03	1.06	0.861	0.842	0.335	0.43	0.444	0.272	0.71
NCI-H1993	0.659	0.709	0.811	0.64	0.645	0.594	0.622	0.582	0.678	0.701	0.777	0.697	1.12	1.05	0.922	0.69	0.589
NCI-H2009	1.24	1.21	1.09	0.583	0.695	0.628	0.653	0.506	1.2	1.25	1.13	0.217	0.944	1.02	1.04	0.923	0.692
NCI-H2023	0.999	0.662	0.767	0.368	0.32	0.272	–	0.177	0.744	0.699	0.659	0.305	0.984	1.01	1.17	0.893	0.278
NCI-H2085	0.887	0.922	0.915	0.629	0.752	0.816	0.614	0.45	0.822	0.743	0.852	0.517	0.949	0.974	0.83	0.631	0.679
NCI-H2087	1.17	0.968	1.07	0.869	0.226	0.233	0.189	0.262	0.979	0.741	0.861	0.868	0.872	0.76	0.867	0.783	–
NCI-H2126	0.893	1.07	1.25	1.29	0.848	0.831	–	0.846	0.704	0.722	0.704	0.771	1.07	1.13	1.09	1.16	0.751
NCI-H2228	0.772	0.912	0.867	0.708	0.2	0.208	0.228	0.187	0.84	0.628	0.917	0.825	0.975	0.923	1.11	1.1	0.2
NCI-H2347	0.767	0.907	1.38	0.892	0.419	0.531	0.511	0.521	0.965	0.93	1.1	0.618	0.984	1.05	1.24	0.819	0.547
NCI-H2405	1.04	1.03	0.936	0.64	0.722	0.726	0.738	0.68	0.952	0.755	0.83	0.469	0.951	1.01	0.971	0.701	0.742
NCI-H3122	0.923	1	0.927	0.933	0.368	0.483	–	0.337	0.97	1	0.993	1.09	1	1.01	1.05	0.973	–
PC-3 [JPC-3]	1.04	1.08	1.11	1.02	0.849	0.909	0.849	0.852	0.995	0.927	0.995	0.995	0.823	0.94	0.774	0.904	0.835
PC-14	0.83	0.911	0.908	1.02	0.551	0.584	0.556	0.558	0.967	0.984	0.981	0.993	0.905	0.861	0.93	0.771	0.555
